Tests used:
Type in all cases: biochemical
KDM2B (FBXL10) = target: T1, KDM2B (FBXL10) (Homo sapiens, UniProt Q8NHM5); experiment: Histone lysine demethylase AlphaLISA assay, KDM2B; conditions: in vitro enzyme, read-out: KDM2B IC50 (HDME Inhibition)
T1 construct: 1-650; purchased BPS Bioscience, US; host or cells: Bac (baculovirus/insect cells)
T1 sequence (Q8NHM5 1-650): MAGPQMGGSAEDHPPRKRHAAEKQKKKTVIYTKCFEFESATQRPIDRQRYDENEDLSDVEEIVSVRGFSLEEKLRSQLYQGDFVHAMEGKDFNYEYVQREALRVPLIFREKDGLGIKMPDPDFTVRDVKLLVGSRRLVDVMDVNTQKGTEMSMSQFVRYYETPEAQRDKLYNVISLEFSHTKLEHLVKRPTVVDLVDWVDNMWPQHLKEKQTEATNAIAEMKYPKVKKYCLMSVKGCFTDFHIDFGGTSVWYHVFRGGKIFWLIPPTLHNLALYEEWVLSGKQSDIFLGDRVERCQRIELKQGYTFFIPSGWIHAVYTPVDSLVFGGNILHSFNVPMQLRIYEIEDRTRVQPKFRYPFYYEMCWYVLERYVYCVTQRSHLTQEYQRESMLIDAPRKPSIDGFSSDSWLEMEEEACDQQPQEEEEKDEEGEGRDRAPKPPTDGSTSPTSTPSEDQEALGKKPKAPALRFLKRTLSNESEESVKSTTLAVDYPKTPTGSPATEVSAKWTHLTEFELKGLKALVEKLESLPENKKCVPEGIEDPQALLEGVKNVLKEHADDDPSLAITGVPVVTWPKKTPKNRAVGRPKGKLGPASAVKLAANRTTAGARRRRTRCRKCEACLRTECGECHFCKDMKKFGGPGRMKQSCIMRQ
Procedure: (§1) Histone lysine demethylase AlphaLISA assays are performed to determine IC50 values. […] Assays are performed analogously to the protocol described by PerkinElmer (Roy et al. PerkinElmer Technical Note: AlphaLISA #12, April 2011).
(§2) Assays are performed analogously to the protocol described by PerkinElmer (Roy et al. PerkinElmer Technical Note: AlphaLISA #12, April 2011).
(§3) Enzymes (final assay concentration 0.1-2.5 nM) are dissolved in enzyme buffer and incubated for 10 min before 5 μL is added to 5 μL 3% DMSO solutions of compounds in enzyme buffer, incubated for another 10 minutes, before 5 μL substrate solution is added and the reaction mixture is incubated at room temperature. 10 μL acceptor beads, suspended Epigenetic Buffer (Perkin Elmer AL008) from stock, are added and the suspension is incubated in the dark at room temperature, before 10 μL suspension of streptavidin donor beads (Perkin Elmer 6760002) in Epigenetic Buffer is added. After incubation at room temperature in the dark the plates are read.
(§4) Substrate solution: Substrate (final assay concentration 50-200 nM), 50 mM Hepes (pH 7.4-8.0), 0.003% Tween-20, 0.1% BS, 25 μM L-Asc, 10 μM α-KG. Enzyme Buffer: 50 mM Hepes (pH 7.4-8.0), 0.003% Tween-20, 0.1% BSA; 5 μM (NH4)2Fe(SO4)2

KDM5B (PLU-1) = target: T2, KDM5B (PLU-1) (Homo sapiens, UniProt Q9UGL1); experiment: Histone lysine demethylase AlphaLISA assay, KDM5B; conditions: in vitro enzyme, read-out: KDM5B IC50 (HDME Inhibition)
T2 construct: 1-809; host or cells: E. coli
T2 sequence (Q9UGL1 1-809): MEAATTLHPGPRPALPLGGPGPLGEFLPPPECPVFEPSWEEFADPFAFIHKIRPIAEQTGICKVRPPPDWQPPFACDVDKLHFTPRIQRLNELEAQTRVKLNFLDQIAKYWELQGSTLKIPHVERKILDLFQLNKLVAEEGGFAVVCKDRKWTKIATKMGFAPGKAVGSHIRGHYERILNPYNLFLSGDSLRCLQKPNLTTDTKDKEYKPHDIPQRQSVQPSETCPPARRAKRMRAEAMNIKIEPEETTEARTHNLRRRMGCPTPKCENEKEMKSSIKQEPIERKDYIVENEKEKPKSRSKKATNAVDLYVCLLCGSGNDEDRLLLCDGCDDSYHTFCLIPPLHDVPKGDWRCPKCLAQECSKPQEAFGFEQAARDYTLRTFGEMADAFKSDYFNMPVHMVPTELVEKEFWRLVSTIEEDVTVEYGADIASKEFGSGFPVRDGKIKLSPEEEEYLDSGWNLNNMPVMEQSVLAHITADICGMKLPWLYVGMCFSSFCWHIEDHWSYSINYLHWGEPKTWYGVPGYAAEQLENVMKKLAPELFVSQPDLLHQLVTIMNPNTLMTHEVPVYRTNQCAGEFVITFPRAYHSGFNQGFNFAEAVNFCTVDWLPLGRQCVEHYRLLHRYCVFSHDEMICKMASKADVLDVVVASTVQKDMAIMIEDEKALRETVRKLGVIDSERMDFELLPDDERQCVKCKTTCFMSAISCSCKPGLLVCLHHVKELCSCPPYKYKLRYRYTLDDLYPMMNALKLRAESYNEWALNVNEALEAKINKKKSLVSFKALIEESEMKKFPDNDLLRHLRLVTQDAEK
Procedure: as §1, §2, §3, §4

KDM6A (UTX) = target: T3, KDM6A (UTX) (Homo sapiens, UniProt O15550); experiment: Histone lysine demethylase AlphaLISA assay, KDM6A; conditions: in vitro enzyme, read-out: KDM6A IC50 (HDME Inhibition)
T3 construct: 919-1401; host or cells: E. coli
T3 sequence (O15550 919-1401): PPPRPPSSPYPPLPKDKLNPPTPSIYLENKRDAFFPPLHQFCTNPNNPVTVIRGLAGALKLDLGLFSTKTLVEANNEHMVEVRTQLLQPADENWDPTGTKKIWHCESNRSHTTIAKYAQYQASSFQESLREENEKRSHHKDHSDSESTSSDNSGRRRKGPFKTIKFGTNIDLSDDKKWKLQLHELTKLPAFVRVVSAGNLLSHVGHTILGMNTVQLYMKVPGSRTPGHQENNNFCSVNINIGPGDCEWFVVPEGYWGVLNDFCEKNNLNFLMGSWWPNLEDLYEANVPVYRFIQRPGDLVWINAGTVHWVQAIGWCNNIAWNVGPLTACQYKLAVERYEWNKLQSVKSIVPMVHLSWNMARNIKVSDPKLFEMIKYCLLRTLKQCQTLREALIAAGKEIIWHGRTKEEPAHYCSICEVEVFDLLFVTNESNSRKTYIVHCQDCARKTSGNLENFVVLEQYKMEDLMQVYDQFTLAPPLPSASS
Procedure: as §1, §2, §3, §4

PHF8 (KDM7) = PHF8 (KDM7) (Homo sapiens, UniProt Q9UPP1); experiment: Histone lysine demethylase AlphaLISA assay, PHF8; conditions: in vitro enzyme, read-out: PHF8 IC50 (HDME Inhibition)
PHF8 (KDM7), sequence (Q9UPP1 whole entry): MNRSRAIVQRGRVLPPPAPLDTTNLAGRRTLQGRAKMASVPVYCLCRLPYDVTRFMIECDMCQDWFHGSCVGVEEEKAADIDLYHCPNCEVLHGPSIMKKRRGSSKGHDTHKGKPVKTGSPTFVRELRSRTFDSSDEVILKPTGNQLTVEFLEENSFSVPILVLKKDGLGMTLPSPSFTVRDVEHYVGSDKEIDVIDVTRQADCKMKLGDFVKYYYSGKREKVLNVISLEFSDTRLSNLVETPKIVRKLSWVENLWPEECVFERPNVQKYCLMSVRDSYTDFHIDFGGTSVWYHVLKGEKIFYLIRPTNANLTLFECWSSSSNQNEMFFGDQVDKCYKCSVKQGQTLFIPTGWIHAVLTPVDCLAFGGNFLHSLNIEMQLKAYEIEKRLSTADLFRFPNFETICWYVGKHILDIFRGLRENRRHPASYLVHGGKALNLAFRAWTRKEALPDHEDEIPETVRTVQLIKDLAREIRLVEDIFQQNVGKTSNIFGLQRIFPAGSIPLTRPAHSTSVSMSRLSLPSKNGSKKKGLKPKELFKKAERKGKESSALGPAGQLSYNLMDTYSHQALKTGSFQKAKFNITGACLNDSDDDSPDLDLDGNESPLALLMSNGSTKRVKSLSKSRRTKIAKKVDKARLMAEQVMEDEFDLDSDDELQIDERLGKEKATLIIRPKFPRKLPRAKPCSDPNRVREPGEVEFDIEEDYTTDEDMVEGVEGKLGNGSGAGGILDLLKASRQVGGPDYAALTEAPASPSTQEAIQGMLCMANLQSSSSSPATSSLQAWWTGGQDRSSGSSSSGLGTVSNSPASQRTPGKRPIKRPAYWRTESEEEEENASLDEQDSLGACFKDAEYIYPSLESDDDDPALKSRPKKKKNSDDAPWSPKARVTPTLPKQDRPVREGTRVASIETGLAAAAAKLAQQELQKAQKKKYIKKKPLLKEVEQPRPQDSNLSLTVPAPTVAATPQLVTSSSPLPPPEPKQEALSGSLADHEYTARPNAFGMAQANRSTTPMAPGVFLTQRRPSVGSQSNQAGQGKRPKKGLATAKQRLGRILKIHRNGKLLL
Procedure: as §1, §2, §3, §4

| SMILES | IC50 (KDM2B (FBXL10)) [nM] | IC50 (KDM5B (PLU-1)) [nM] | IC50 (KDM6A (UTX)) [nM] | IC50 (PHF8 (KDM7)) [nM] |
| --- | --- | --- | --- | --- |
| CCN1CCC[C@H](CNCc2cc(C(=O)O)ccn2)C1=O [Compound 107, 2-[({[(3R)-1-ethyl-2-oxopiperidin-3-yl]methyl}amino)methyl]pyridine-4-carboxylic acid] | < 250 | < 250 | > 2500 |  |
| O=C(O)c1ccnc(CNCc2cncc3ccccc23)c1 [Compound 85, 2-{[(isoquinolin-4-ylmethyl)amino]methyl}pyridine-4-carboxylic acid] | < 250 |  | > 2500 |  |
| CCc1ccnc2c1CCC2NCc1cc(C(=O)O)ccn1 (stereo not drawn) [Compound 97, 2-[({4-ethyl-5H,6H,7H-cyclopenta[b]pyridin-7-yl}amino)methyl]pyri-dine-4-carboxylic acid] | < 250 | < 250 |  | < 250 |
| C=CCN(CC=C)C(=O)[C@@H](CCC(N)=O)NCc1cc(C(=O)O)ccn1 [Compound 25, 2-({[(1R)-1-[bis(prop-2-en-1-yl)carbamoyl]-3-carbamoylpropyl]amino}methyl)pyridine-4-carboxylic acid] | 250 to 2500 | 250 to 2500 |  | 250 to 2500 |
| CCCC(NCC(=O)N1CCCCC1)c1cc(C(=O)O)ccn1 (stereo not drawn) [Compound 45, 2-(1-{[2-oxo-2-(piperidin-1-yl)ethyl]amino}butyl) pyridine-4-carboxylic acid] | 250 to 2500 |  |  | 250 to 2500 |
| O=C(O)c1ccnc(CNCc2ccc3ncccc3c2)c1 [Compound 87, 2-{[(quinolin-6-ylmethyl)amino]methyl}pyridine-4-carboxylic acid] | 250 to 2500 | < 250 |  | < 250 |
| O=C(O)c1ccnc(CN2CCCCC2CO)c1 (stereo not drawn) [Compound 66, 2-{[2-(hydroxymethyl)piperidin-1-yl]methyl} pyridine-4-carboxylic acid] | 250 to 2500 | > 2500 |  | > 2500 |
| O=C(O)c1ccnc(CNC2CCc3c(CCc4ccccc4)ccnc32)c1 (stereo not drawn) [Compound 96, 2-({[4-(2-phenylethyl)-5H,6H,7H-cyclopenta[b]pyridin-7-yl]amino}methyl)pyri-dine-4-carboxylic acid] | < 250 |  |  | < 250 |
| CSCC[C@H](NCc1cc(C(=O)O)ccn1)C(=O)OC(C)(C)C [Compound 49, 2-({[(2S)-1-(tert-butoxy)-4-(methylsulfanyl)-1-oxobutan-2-yl]amino}methyl)pyri-dine-4-carboxylic acid] | 250 to 2500 |  | > 2500 | 250 to 2500 |
| CC(C)C[C@H](NCc1cc(C(=O)O)ccn1)C1CCCO1 (stereo partly drawn) [Compound 60, 2-({[(1S)-3-methyl-1-(oxolan-2-yl)butyl]amino}methyl) pyridine-4-carboxylic acid] | > 2500 | < 250 | > 2500 |  |
| CC(C)C[C@H](NCc1cc(C(=O)O)ccn1)C(=O)NCc1ccccc1NC(=O)C1CC1C (stereo partly drawn) [Compound 7, 2-({[(1S)-3-methyl-1-({[2-(2-methylcyclopropane-amido)phenyl]methyl}carbamoyl)butyl]amino}methyl)pyridine-4-carboxylic acid] | 250 to 2500 |  | > 2500 | 250 to 2500 |
| COc1ccc(CCCN(CC(=O)N2CCCCC2)Cc2cc(C(=O)O)ccn2)cc1 [Compound 46, 2-({[3-(4-methoxyphenyl)propyl] [2-oxo-2-(piperidin-1-yl)ethyl]amino}methyl) pyridine-4-carboxylic acid] | 250 to 2500 |  |  | 250 to 2500 |
| C=CCN(CC=C)C(=O)[C@@H](CC(=O)NCCCC)NCc1cc(C(=O)O)ccn1 [Compound 24, 2-({[(1R)-1-[bis(prop-2-en-1-yl)carbamoyl]-2-(butylcarbamoyl)ethyl]amino}methyl)pyridine-4-carboxylic acid] | 250 to 2500 | > 2500 | > 2500 |  |
| CC(N[C@@H](C)C(=O)NCc1ccccc1)c1cc(C(=O)O)ccn1 (stereo partly drawn) [Compound 36, 2-(1-{[(1S)-1-(benzylcarbamoyl)ethyl]amino}ethyl)pyridine-4-carboxylic acid] | 250 to 2500 |  | > 2500 | 250 to 2500 |
| CC(C)C[C@H](NCc1cc(C(=O)O)ccn1)C(=O)NCC1CCS(=O)(=O)C1 (stereo partly drawn) [Compound 38, 2-({[(1S)-1-{[(1,1-dioxo-1-thiolan-3-yl)methyl]carbamoyl}-3-methylbutyl]amino}methyl)pyridine-4-carboxylic acid] | 250 to 2500 |  | > 2500 | 250 to 2500 |
| CCN1CC[C@@H](CNCc2cc(C(=O)O)ccn2)C1=O [Compound 105, 2-[({[(3S)-1-ethyl-2-oxopyrrolidin-3-yl]methyl}amino)methyl]pyridine-4-carboxylic acid] | < 250 |  | > 2500 | < 250 |
| CC(c1cc(C(=O)O)ccn1)N(C)CC(=O)N1CCCCC1 (stereo not drawn) [Compound 47, 2-(1-{methyl[2-oxo-2-(piperidin-1-yl)ethyl]amino}ethyl) pyridine-4-carboxylic acid] | 250 to 2500 | > 2500 |  |  |
| CC1(C)Cc2cccnc2C1NCc1cc(C(=O)O)ccn1 (stereo not drawn) [Compound 102, 2-[({6,6-dimethyl-5H,6H,7H-cyclopenta[b]pyridin-7-yl}amino)methyl]pyri-dine-4-carboxylic acid] | 250 to 2500 | 250 to 2500 |  | 250 to 2500 |
| CC(C)C[C@@H]1[C@@H](O)CC(C)N1Cc1cc(C(=O)O)ccn1 (stereo partly drawn) [Compound 59, 2-{[(2R,3S)-3-hydroxy-5-methyl-2-(2-methylpropyl)pyrrolidin-1-yl]methyl}pyridine-4-carboxylic acid] | 250 to 2500 | 250 to 2500 |  | 250 to 2500 |
| O=C(O)c1ccnc(CN2CCn3ccnc3C2)c1 [Compound 52, 2-{5H,6H,7H,8H-imidazo[1,2-a]pyrazin-7-ylmethyl}pyridine-4-carboxylic acid] | > 2500 | 250 to 2500 | > 2500 |  |
| C=CCN(CC=C)C(=O)[C@@H](CC(=O)NCC1CC1)NCc1cc(C(=O)O)ccn1 [Compound 18, 2-({[(1R)-1-[bis(prop-2-en-1-yl)carbamoyl]-2-[(cyclopropylmethyl)carbamoyl]ethyl]amino}methyl)pyridine-4-carboxylic acid] | 250 to 2500 | 250 to 2500 | > 2500 |  |
| O=C(O)c1ccnc(CNCC(=O)N2CCCCC2)n1 [Compound 23, 2-({[2-oxo-2-(piperidin-1-yl)ethyl]amino}methyl) pyrimidine-4-carboxylic acid] | 250 to 2500 | > 2500 |  |  |
